Patent EP4772530A1, “PEPTIDE TARGETING SOMATOSTATIN RECEPTOR, DRUG CONJUGATE AND USE THEREOF” (Mainline Biosciences (Shanghai) Co., Ltd., priority 2023, dated 2025)
Like-named read-outs stand apart in the source and are kept apart here. *1 amine or outer side, *2 acyl side, *3 side chain or, on linkers, in order; H or OH if unused. Where a SMILES comes first, the peptide text is derived from it. Bridges are numbered along the chain shown (N, C = ends). Roman numbers before positions name the chains, in order. [ ]: non-standard residue; d: D form. The star is where a group is joined. X4 = CC(=O)N[C@@H](CSC1CC(=O)N(CCCCCC(=O)[*:2])C1=O)C(=O)NCCOCCOCCOCCOCCOCCOCCC(=O)[*:1]; Exatecan = CC[C@@]1(O)C(=O)OCc2c1cc1n(c2=O)Cc2c-1nc1cc(F)c(C)c3c1c2[C@@H](N*)CC3; X1 = O=C(O)[C@H]1O[C@@H](Oc2ccc(COC(=O)[*:2])cc2N[*:1])[C@H](O)[C@@H](O)[C@@H]1O; Hexanoyl(6-succinimido-3yl) = O=C1CC([*:1])C(=O)N1CCCCCC(=O)[*:2]; Dolaproine = CO[C@@H]([C@@H]1CCCN1)[C@@H](C)C(=O)O; X3 = O=C(CCCCCN1C(=O)CC([*:1])C1=O)NCCC(=O)[*:2]; Dil = CC[C@H](C)[C@H](NC)[C@@H](CC(=O)O)OC; PABC = O=C(OCc1ccc(N[*:1])cc1)[*:2]; PEG6 = NCCOCCOCCOCCOCCOCCOCCC(=O)O; NHCH2OCH2CO = O=C(COCN[*:1])[*:2]; X2 = C[C@@H](N*)[C@@H](O)c1ccccc1; Cit = NC(=O)NCCC[C@H](N)C(=O)O; NMeV = CN[C@H](C(=O)O)C(C)C; AEEA = NCCOCCOCC(=O)O

Tests used:
[1] = tested on: NCI-H69; experiment: Cell killing in NCI-H69 by CGT (CellTiter-Glo); assay type: cell-based; details: NCI-H69, 96 h; for Bottom (Inhibition at Lowest Point) / Top (Inhibition at Highest Point): Inh% relative to DMSO control, 4-parameter fit
Protocol: Approximately 5 µL of the PDC was added to the corresponding wells of the plate, and compared with DMSO (control, without the PDC of the present application), PTX, MMAE, and Dxd wells. The final concentration of DMSO in each well was 0.2%; • (5) The cells were incubated in a 5% CO2 incubator at 37°C for 96 h; • (6) The cell culture plate was equilibrated to room temperature, and 50 µL of CellTiter-Glo® Reagent was added to each well; • (7) The plate was placed on a shaker for 2 min to ensure complete cell lysis; • (8) After mixing, the plate was placed at room temperature to react for 10 min. The fluorescence value (in RLU) was read when the signal became stable. • c) Data analysis • (1) The inhibition (Inh %) relative to the DMSO control was calculated as follows: Inhibition (Inh%)= 100 -(RLU of compound - RLU of DMSO control)/ (RLU of DMSO control - RLU of blank)*100% • (2) The data were analyzed using Graphpad 5.0 software. A 4-parameter equation was fitted to generate a concentration-response curve to obtain the IC50. Table 3: Test Results of Cell Killing in NCI-H69

[2] = target: T1, SSTR2 (Homo sapiens, UniProt P30874); experiment: SSTR2 cAMP test; assay type: cell-based; details: for activity at 50 µM: Max Dose 50000 nM; for EC50: SSTR2/CHO cells, Forskolin, cAMP activation rate
T1 construct: expressed in transfected cells; host or cells: CHO cells (SSTR2/CHO)
Protocol: • 1) Compound preparation: The test compound was diluted by 4-fold with DMSO to obtain 10 different concentration points. Approximately 100 nL of the diluted compound was then transferred to a cell reaction plate and centrifuged for later use. • 2) Cell preparation:The cultured SSTR2/CHO cells were collected into a sterile centrifuge tube, and the supernatant was discarded by centrifugation. • 3) The cells were resuspended in assay buffer, counted using a Vi-cell counter, and diluted with assay buffer. • 4) Approximately 100 nL of 100 µM Forskolin was transferred into the cell reaction plate using an Echo and centrifuged. Then, 10 µL of assay buffer containing the cells was added and incubated. • 5) Approximately 10 µL of cAMP detection reagent solution was added to the corresponding wells of the cell reaction plate, and incubated at room temperature in the dark. • 6) The plate was read using a microplate reader. The final value was determined as the ratio of OD at 665 nm to that at 615 nm. • 7) The cAMP value was calculated for each well: Activity (%)=(signal value of sample well - mean signal value of low-signal control wells)/ (mean signal value of high-signal control wells - mean signal value of low-signal control wells). Fitting was performed using the "Nonlinear regression (curve fit)-log(agonist) vs. response -- Variable slope" model in GraphPad Prism 5.0, with the log-transformed compound concentration on the x-axis and cAMP activation rate on the y-axis. The EC50 value of the sample was calculated accordingly. Table 2: SSTR2 cAMP Test Results

T1 sequence (P30874 whole entry): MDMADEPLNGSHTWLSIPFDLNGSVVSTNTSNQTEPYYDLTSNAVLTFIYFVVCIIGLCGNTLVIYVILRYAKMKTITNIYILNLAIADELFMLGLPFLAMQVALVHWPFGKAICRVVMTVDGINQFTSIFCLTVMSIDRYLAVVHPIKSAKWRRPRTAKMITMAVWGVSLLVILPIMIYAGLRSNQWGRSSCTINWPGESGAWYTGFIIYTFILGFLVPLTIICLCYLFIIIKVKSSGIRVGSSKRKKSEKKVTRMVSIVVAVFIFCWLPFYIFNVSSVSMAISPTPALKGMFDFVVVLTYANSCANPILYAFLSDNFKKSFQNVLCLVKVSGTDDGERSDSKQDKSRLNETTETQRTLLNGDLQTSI

## CC[C@@]1(O)C(=O)OCc2c1cc1n(c2=O)Cc2c-1nc1cc(F)c(C)c3c1c2[C@@H](NC(=O)COCNC(=O)CNC(=O)[C@H](Cc1ccccc1)NC(=O)CNC(=O)CNC(=O)CCCCCN1C(=O)CC(SC[C@H](NC(C)=O)C(=O)NCCOCCOCCOCCOCCOCCOCCC(=O)N[C@@H](CCCNC(=N)N)C(=O)N[C@@H](CCCNC(=N)N)C(=O)N[C@@H](CC(C)C)C(=O)N[C@@H](Cc2ccccc2)C(=O)N[C@H]2CSSC[C@@H](C(=O)N[C@H](C(=O)N[C@@H](Cc4c[nH]c5ccccc45)C(=O)N[C@@H](CCCNC(=N)N)C(=O)N[C@@H](CC(=O)O)C(N)=O)[C@@H](C)O)NC(=O)[C@H]([C@@H](C)O)NC(=O)[C@H](CCCCN)NC(=O)[C@@H](Cc4c[nH]c5ccccc45)NC(=O)[C@H](Cc4ccc(O)cc4)NC2=O)C1=O)CC3 (stereo partly drawn) [Example 6, Ac-Cys(MC-Gly-Gly-Phe-Gly-NH-CH2-Dxd)-PEG6-Arg-Arg-Leu-Phe-[Cys-Tyr-D-Trp-Lys-Thr-Cys]-Thr-Trp-Arg-Asp-NH2] (I: Ac-C[PEG6]RRLFCY[dW]KTCTWRD-NH2 / II: GGFG[NHCH2OCH2CO]-Exatecan; linker I:1-II:N via Hexanoyl(6-succinimido-3yl); disulfide I:7-I:12)
[1]
  IC50: 276 nM
[2]
  activity at 50 µM: 67.8%
  EC50: 148 nM

## CC[C@@]1(O)C(=O)OCc2c1cc1n(c2=O)Cc2c-1nc1cc(F)c(C)c3c1c2[C@@H](NC(=O)CO)CC3 [Dxd]
[1]; Homo sapiens
  IC50: 7.53 nM
[1]
  Bottom (Inhibition at Lowest Point): = 0.0
  Top (Inhibition at Highest Point): 98.19

## CCC(C)C(C(CC(=O)N1CCCC1C(OC)C(C)C(=O)NC(C)C(O)c1ccccc1)OC)N(C)C(=O)C(NC(=O)C(NC)C(C)C)C(C)C (centres unmarked) [MMAE]
[1]; Homo sapiens, read-out: IC50
  IC50: 0.57 nM
[1]
  Bottom (Inhibition at Lowest Point): 0.31
  Top (Inhibition at Highest Point): 85.99

## CC(=O)O[C@H]1C(=O)[C@@]2(C)[C@H]([C@H](OC(=O)c3ccccc3)[C@]3(O)C[C@H](OC(=O)[C@H](O)[C@@H](NC(=O)c4ccccc4)c4ccccc4)C(C)=C1C3(C)C)[C@]1(OC(C)=O)CO[C@@H]1C[C@@H]2O [PTX]
[1]
  Bottom (Inhibition at Lowest Point): 0.47
  Top (Inhibition at Highest Point): 78.37
[1]; read-out: IC50
  IC50: 3.74 nM

## CC[C@@]1(O)C(=O)OCc2c1cc1n(c2=O)Cc2c-1nc1cc(F)c(C)c3c1c2[C@@H](NC(=O)COCNC(=O)CNC(=O)[C@H](Cc1ccccc1)NC(=O)CNC(=O)CNC(=O)CCCCCN1C(=O)CC(SC[C@H](NC(C)=O)C(=O)NCCOCCOCCOCCOCCOCCOCCC(=O)NCCCC[C@H](NC(=O)CCOCCOCCOCCOCCOCCOCCNC(=O)[C@H](CSC2CC(=O)N(CCCCCC(=O)NCC(=O)NCC(=O)N[C@@H](Cc4ccccc4)C(=O)NCC(=O)NCOCC(=O)N[C@H]4CCc5c(C)c(F)cc6nc7c(c4c56)Cn4c-7cc5c(c4=O)COC(=O)[C@]5(O)CC)C2=O)NC(C)=O)C(=O)N[C@@H](CCCCNC(=O)CCOCCOCCOCCOCCOCCOCCNC(=O)[C@H](CSC2CC(=O)N(CCCCCC(=O)NCC(=O)NCC(=O)N[C@@H](Cc4ccccc4)C(=O)NCC(=O)NCOCC(=O)N[C@H]4CCc5c(C)c(F)cc6nc7c(c4c56)Cn4c-7cc5c(c4=O)COC(=O)[C@]5(O)CC)C2=O)NC(C)=O)C(=O)NCCOCCOCCOCCOCCOCCOCCC(=O)N[C@@H](CCCNC(=N)N)C(=O)N[C@@H](CCCNC(=N)N)C(=O)N[C@@H](CC(C)C)C(=O)N[C@@H](Cc2ccccc2)C(=O)N[C@H]2CSSC[C@@H](C(=O)N[C@H](C(=O)N[C@@H](Cc4c[nH]c5ccccc45)C(=O)N[C@@H](CCCNC(=N)N)C(=O)N[C@@H](CC(=O)O)C(N)=O)[C@@H](C)O)NC(=O)[C@H]([C@@H](C)O)NC(=O)[C@H](CCCCN)NC(=O)[C@@H](Cc4c[nH]c5ccccc45)NC(=O)[C@H](Cc4ccc(O)cc4)NC2=O)C1=O)CC3 (stereo partly drawn) [Example 7, Ac-Cys(MC-Gly-Gly-Phe-Gly-NH-CH2-Dxd)-PEG6-Lys(Ac-Cys(MC-Gly-Gly-Phe-Gly-NH-CH2-Dxd)-PEG6)-Lys(Ac-Cys(MC-Gly-Gly-Phe-Gly-NH-CH2-Dxd)-PEG6)-PEG6-Arg-Arg-Leu-Phe-[Cys-Tyr-D-Trp-Lys-Thr-Cys]-Thr-Trp-Arg-Asp-NH2] (I: Ac-C[PEG6]KK[PEG6]RRLFCY[dW]KTCTWRD-NH2 / II: GGFG[NHCH2OCH2CO]-Exatecan / III: GGFG[NHCH2OCH2CO]-Exatecan / IV: GGFG[NHCH2OCH2CO]-Exatecan; linker I:1-III:N via Hexanoyl(6-succinimido-3yl); linker I:3-II:N, I:4-IV:N via X4; disulfide I:10-I:15)
[1]
  IC50: 122 nM
[2]
  activity at 50 µM: 54.4%
  EC50: 23400 nM

## CC[C@H](C)[C@@H]([C@@H](CC(=O)N1CCC[C@H]1[C@H](OC)[C@@H](C)C(=O)N[C@H](C)[C@@H](O)c1ccccc1)OC)N(C)C(=O)[C@@H](NC(=O)[C@H](C(C)C)N(C)C(=O)OCc1ccc(O[C@@H]2O[C@H](C(=O)O)[C@@H](O)[C@H](O)[C@H]2O)c(NC(=O)CCNC(=O)CCCCCN2C(=O)CC(SC[C@H](NC(C)=O)C(=O)NCCOCCOCC(=O)NCCOCCOCC(=O)NCCOCCOCC(=O)N[C@@H](CCCNC(=N)N)C(=O)N[C@@H](CCCNC(=N)N)C(=O)N[C@@H](CC(C)C)C(=O)N[C@@H](Cc3ccccc3)C(=O)N[C@H]3CSSC[C@@H](C(=O)N[C@H](C(=O)N[C@@H](Cc4c[nH]c5ccccc45)C(=O)N[C@@H](CCCNC(=N)N)C(=O)N[C@@H](CC(=O)O)C(N)=O)[C@@H](C)O)NC(=O)[C@H]([C@@H](C)O)NC(=O)[C@H](CCCCN)NC(=O)[C@@H](Cc4c[nH]c5ccccc45)NC(=O)[C@H](Cc4ccc(O)cc4)NC3=O)C2=O)c1)C(C)C (stereo partly drawn) [Example 4, Ac-Cys(MC-betaglucuronide-MMAE)-AEEA-AEEA-AEEA-Arg-Arg-Leu-Phe-[Cys-Tyr-D-Trp-Lys-Thr-Cys]-Thr-Trp-Arg-Asp-NH2] (I: Ac-C[AEEA][AEEA][AEEA]RRLFCY[dW]KTCTWRD-NH2 / II: [X1][NMeV]V[Dil][Dolaproine]-X2; linker I:1-II:N via X3; disulfide I:9-I:14)
[1]
  Bottom (Inhibition at Lowest Point): 3.88
  Top (Inhibition at Highest Point): 75.08
[2]
  activity at 50 µM: 95.2%

## CC[C@H](C)[C@@H]([C@@H](CC(=O)N1CCC[C@H]1[C@H](OC)[C@@H](C)C(=O)N[C@H](C)[C@@H](O)c1ccccc1)OC)N(C)C(=O)[C@@H](NC(=O)[C@H](C(C)C)N(C)C(=O)OCc1ccc(NC(=O)[C@H](CCCNC(N)=O)NC(=O)[C@@H](NC(=O)CCCCCN2C(=O)CC(SC[C@H](NC(=O)CCOCCOCCOCCOCCOCCOCCN)C(=O)NCCOCCOCCOCCOCCOCCOCCC(=O)N[C@@H](CCCNC(=N)N)C(=O)N[C@@H](CCCNC(=N)N)C(=O)N[C@@H](CC(C)C)C(=O)N[C@@H](Cc3ccccc3)C(=O)N[C@H]3CSSC[C@@H](C(=O)N[C@H](C(=O)N[C@@H](Cc4c[nH]c5ccccc45)C(=O)N[C@@H](CCCNC(=N)N)C(=O)N[C@@H](CC(=O)O)C(N)=O)[C@@H](C)O)NC(=O)[C@H]([C@@H](C)O)NC(=O)[C@H](CCCCN)NC(=O)[C@@H](Cc4c[nH]c5ccccc45)NC(=O)[C@H](Cc4ccc(O)cc4)NC3=O)C2=O)C(C)C)cc1)C(C)C (stereo partly drawn) [Example 2, PEG6-Cys(MC-Val-Cit-PABC-MMAE)-PEG6-Arg-Arg-Leu-Phe-[Cys-Tyr-D-Trp-Lys-Thr-Cys]-Thr-Trp-Arg-Asp-NH2] (I: H-[PEG6]C[PEG6]RRLFCY[dW]KTCTWRD-NH2 / II: V[Cit][PABC][NMeV]V[Dil][Dolaproine]-X2; linker I:2-II:N via Hexanoyl(6-succinimido-3yl); disulfide I:8-I:13)
[2]
  activity at 50 µM: 95.4%
  EC50: 477 nM
